Assay: Local delivery of drug in charged liposomes/micelles from a hydrogel-coated metal mesh catheter by iontophoresis
Settings: iontophoresis 5 mA, 8 V, 10 minutes
Experimental: Liposome or micelles were prepared by mixing 3.0 mg of phosphatidylcholine, 3.0 mg of cholesterol and 0.3 mg of phosphatidylserine in a test tube. Chloroform (200 microliters) was added and the solution was evaporated to dryness in a test tube. 7-Amino Actinomycin D (500 mg) was dissolved in 8 mM CaCl2 for a final concentration of 0.5 mg/ml. The 7-Amino Actinomycin D solution was added to the lipid mixture in small aliquots with constant stirring. The hydrogel-coated metal mesh catheter was placed in the 7-amino Actinomycin D/liposome or micelle mixture and then used for drug delivery in the following manner: The hydrogel-coated metal mesh catheter was placed in the 7-Amino Actinomycin D/liposome or micelle mixture and then removed. In some cases, the hydrogel-coated mesh portion of the catheter was covered with a retractable sheath to prevent loss of the compound during the transport of the catheter from the arterial access site to the target site. When the catheter was positioned at the target site the sheath was retracted and the mesh was expanded against the arterial wall. Iontophoersis was performed by applying an electrical current to the mesh. […] In this example the iontophoresis parameters were 5 mA, and 8 V, applied for 10 minutes.

For `Cc1c2oc3c(C)c(N)cc(C(=O)N[C@@H]4C(=O)N[C@H](C(C)C)C(=O)N5CCC[C@H]5C(=O)N(C)CC(=O)N(C)[C@@H](C(C)C)C(=O)O[C@@H]4C)c3nc-2c(C(=O)N[C@@H]2C(=O)N[C@H](C(C)C)C(=O)N3CCC[C@H]3C(=O)N(C)CC(=O)N(C)[C@@H](C(C)C)C(=O)O[C@@H]2C)c(N)c1=O` [7-Amino Actinomycin D], the “distribution of the fluorescent compound in the vessel after local delivery” value (7-Amino Actinomycin D/liposome or micelle mixture (phosphatidylcholine, cholesterol, phosphatidylserine)) was “throughout the vessel wall and in the outer layer of the vessel” and the “localization in the cells of the vessel after local delivery” value (7-Amino Actinomycin D/liposome or micelle mixture) was “evidence of localization of the 7-Amino Actinomycin D in the nuclei of the cells”.
